For 22 molecules, IC50 results are on record in patent US10040781B2, “Tank-binding kinase inhibitor compounds” (Gilead Sciences, Inc., priority 2014, dated 2018).

pIC50: −log10 of the molar value. Like-named read-outs stand apart in the source and are kept apart here.

In assay [1] the target is hJAK2 (Homo sapiens (Human), UniProt O60674). In words: hJAK2 LANCE TR-FRET enzymatic assay. Type of assay: biochemical. The following applies: read-out: JAK2 IC50. In general terms: In TR-FRET formats the signal depends on donor and acceptor labels being close together.
hJAK2, sequence (O60674 whole entry): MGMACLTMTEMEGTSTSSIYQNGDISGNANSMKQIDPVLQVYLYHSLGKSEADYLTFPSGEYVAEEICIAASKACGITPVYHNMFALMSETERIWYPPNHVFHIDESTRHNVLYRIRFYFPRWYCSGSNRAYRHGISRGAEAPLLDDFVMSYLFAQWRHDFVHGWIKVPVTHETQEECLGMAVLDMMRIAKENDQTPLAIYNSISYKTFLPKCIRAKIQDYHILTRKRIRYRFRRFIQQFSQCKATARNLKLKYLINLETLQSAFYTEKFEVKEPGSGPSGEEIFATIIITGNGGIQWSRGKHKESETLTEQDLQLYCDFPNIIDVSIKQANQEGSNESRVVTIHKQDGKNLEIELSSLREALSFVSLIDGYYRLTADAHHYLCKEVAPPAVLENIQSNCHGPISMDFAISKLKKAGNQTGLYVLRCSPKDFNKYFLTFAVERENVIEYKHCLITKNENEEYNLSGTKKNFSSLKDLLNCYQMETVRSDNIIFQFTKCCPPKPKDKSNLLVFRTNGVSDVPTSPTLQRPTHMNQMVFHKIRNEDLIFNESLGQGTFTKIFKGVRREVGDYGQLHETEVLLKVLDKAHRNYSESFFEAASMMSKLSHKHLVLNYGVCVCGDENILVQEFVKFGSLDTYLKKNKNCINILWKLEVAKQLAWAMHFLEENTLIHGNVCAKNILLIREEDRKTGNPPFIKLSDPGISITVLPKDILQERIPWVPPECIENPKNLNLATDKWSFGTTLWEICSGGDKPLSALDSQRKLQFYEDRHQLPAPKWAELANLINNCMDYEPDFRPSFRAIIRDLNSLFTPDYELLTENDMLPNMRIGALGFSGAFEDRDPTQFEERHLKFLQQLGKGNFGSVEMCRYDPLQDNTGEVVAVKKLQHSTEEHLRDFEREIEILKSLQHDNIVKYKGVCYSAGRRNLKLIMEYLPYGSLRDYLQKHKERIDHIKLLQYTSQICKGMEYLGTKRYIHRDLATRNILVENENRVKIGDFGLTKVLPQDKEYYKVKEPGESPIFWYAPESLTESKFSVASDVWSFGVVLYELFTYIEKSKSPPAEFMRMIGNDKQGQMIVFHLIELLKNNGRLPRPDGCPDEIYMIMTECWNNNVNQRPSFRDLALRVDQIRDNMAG
The target in assay [2] is IKKε (Homo sapiens (Human), UniProt Q14164). In words: IKKε TR-FRET enzymatic assay. The assay is classed as biochemical. The settings on record: read-out: IKKe IC50.
IKKε, sequence (Q14164 whole entry): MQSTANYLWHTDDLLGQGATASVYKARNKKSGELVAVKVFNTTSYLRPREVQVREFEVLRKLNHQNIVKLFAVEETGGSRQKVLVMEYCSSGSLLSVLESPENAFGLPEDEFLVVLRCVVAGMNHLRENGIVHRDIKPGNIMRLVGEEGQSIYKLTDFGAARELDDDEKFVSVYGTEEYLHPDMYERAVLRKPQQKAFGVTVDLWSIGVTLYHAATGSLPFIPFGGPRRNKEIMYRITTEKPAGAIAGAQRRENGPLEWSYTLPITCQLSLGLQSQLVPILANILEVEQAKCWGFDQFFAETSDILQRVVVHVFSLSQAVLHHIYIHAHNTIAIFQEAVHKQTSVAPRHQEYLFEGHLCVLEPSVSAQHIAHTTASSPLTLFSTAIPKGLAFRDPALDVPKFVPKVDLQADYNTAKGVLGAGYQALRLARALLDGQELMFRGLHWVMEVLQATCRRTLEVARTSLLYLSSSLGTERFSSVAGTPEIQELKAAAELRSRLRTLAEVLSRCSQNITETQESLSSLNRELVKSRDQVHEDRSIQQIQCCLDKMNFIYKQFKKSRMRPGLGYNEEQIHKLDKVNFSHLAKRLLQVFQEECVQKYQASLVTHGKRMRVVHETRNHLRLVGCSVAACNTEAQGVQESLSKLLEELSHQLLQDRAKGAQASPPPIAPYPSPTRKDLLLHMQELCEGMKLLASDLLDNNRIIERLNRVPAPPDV
Assay [3] has as its target TBK1 (Homo sapiens (Human), UniProt Q9UHD2). In words: TBK1 TR-FRET enzymatic assay.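 Note: phosphorylation of a biotinylated Ser/Thr peptide by purified full-length recombinant TBK1, read by TR-FRET after 240 min at 25 °C, IC50 is the geometric mean of at least four runs.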
[4] abbreviates: TR-FRET, 2×Km ATP, geometric mean of minimum four determinations.

TBK1, sequence (Q9UHD2 whole entry): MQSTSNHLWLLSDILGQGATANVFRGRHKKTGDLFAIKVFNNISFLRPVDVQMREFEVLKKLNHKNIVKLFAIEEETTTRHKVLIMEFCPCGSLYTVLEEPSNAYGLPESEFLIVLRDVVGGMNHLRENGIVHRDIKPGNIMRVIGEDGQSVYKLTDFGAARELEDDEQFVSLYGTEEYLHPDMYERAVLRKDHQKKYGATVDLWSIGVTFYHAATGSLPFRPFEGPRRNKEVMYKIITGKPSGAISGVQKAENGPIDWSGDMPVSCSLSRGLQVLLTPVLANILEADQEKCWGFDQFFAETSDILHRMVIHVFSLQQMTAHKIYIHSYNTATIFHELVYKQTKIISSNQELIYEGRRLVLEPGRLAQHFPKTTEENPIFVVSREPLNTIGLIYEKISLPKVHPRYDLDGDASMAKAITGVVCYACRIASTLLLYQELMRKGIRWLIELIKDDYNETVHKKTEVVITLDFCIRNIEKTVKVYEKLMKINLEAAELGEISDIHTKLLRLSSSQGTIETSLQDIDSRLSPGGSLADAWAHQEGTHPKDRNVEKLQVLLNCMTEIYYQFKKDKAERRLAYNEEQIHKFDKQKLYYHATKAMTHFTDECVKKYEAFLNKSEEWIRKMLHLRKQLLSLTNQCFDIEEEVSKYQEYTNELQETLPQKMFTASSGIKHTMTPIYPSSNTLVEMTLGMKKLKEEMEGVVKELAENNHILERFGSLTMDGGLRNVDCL

As a reminder, the pIC50 is −log10 of the IC50, conventionally taken in molar units. Consider `N#Cc1cc(-c2ncnc(Nc3ccc(N4CCN(C5COC5)CC4)cc3)n2)ccc1O[C@H]1CCN(C(=O)[C@H](O)CO)CC1(F)F` [Example 582, 2-(((S)-1-((R)-2,3-dihydroxypropanoyl)-3,3-difluoropiperidin-4-yl)oxy)-5-(4-((4-(4-(oxetan-3-yl)piperazin-1-yl)phenyl)amino)-1,3,5-triazin-2-yl)benzonitrile], for which the pIC50 is 7.01 in assay [1], 9.00 in assay [2] (setting [4]) and 8.70 in assay [3].
On the same counts, the results for `C[C@H](O)C(=O)N1CC[C@H](Oc2ccc(-c3ncnc(Nc4ccc(N5CCN(CCO)CC5)cc4)n3)cc2C#N)[C@H](F)C1` [Example 583, 2-(((3R,4S)-3-fluoro-1-((S)-2-hydroxypropanoyl)piperidin-4-yl)oxy)-5-(4-((4-(4-(2-hydroxyethyl)piperazin-1-yl)phenyl)amino)-1,3,5-triazin-2-yl)benzonitrile] are 6.32, 9.00 and 8.70.
For `N#Cc1cc(-c2ncnc(Nc3ccc(N4CCN(C5COC5)CC4)cc3)n2)ccc1O[C@H]1CCN(C(=O)[C@@H](O)CO)C[C@H]1F` [Example 584, 2-(((3R,4S)-1-((S)-2,3-dihydroxypropanoyl)-3-fluoropiperidin-4-yl)oxy)-5-(4-((4-(4-(oxetan-3-yl)piperazin-1-yl)phenyl)amino)-1,3,5-triazin-2-yl)benzonitrile], in that order: 6.36, 9.00 and 8.70.
On the same counts, the results for `N#Cc1cc(-c2ncnc(Nc3ccc(N4CCN(C5COC5)CC4)cc3)n2)ccc1O[C@H]1CCN(C(=O)[C@H](O)CO)C[C@H]1F` [Example 585, 2-(((3R,4S)-1-((R)-2,3-dihydroxypropanoyl)-3-fluoropiperidin-4-yl)oxy)-5-(4-((4-(4-(oxetan-3-yl)piperazin-1-yl)phenyl)amino)-1,3,5-triazin-2-yl)benzonitrile] are 6.53, 8.52 and 8.70.
Consider `CC(C#N)C(=O)N1CC[C@H](Oc2ccc(-c3ncnc(Nc4ccc(N5CCN(C6COC6)CC5)cc4)n3)cc2C#N)[C@H](F)C1` (stereo partly drawn) [Example 586, 2-(((3R,4S)-1-(2-cyanopropanoyl)-3-fluoropiperidin-4-yl)oxy)-5-(4-((4-(4-(oxetan-3-yl)piperazin-1-yl)phenyl)amino)-1,3,5-triazin-2-yl)benzonitrile], for which the pIC50 in assay [1] was 6.67; in assay [2] (setting [4]), 7.55; in assay [3], 7.96.
On to `N#Cc1cc(-c2ncnc(Nc3ccc(N4CCN(C5COC5)CC4)cc3)n2)ccc1O[C@H]1CCN(C(=O)C2(C#N)CC2)C[C@H]1F` [Example 587, 2-(((3R,4S)-1-(1-cyanocyclopropanecarbonyl)-3-fluoropiperidin-4-yl)oxy)-5-(4-((4-(4-(oxetan-3-yl)piperazin-1-yl)phenyl)amino)-1,3,5-triazin-2-yl)benzonitrile], for which the pIC50 in assay [1] is 6.63; in assay [2] (setting [4]), 7.31; in assay [3] it was 7.52.
With `N#Cc1cc(-c2ncnc(Nc3ccc(N4CCN(C5COC5)CC4)cc3)n2)ccc1O[C@H]1CCN(C(=O)[C@@H]2C[C@H](O)CN2)C[C@H]1F` [Example 588, 2-(((3R,4S)-3-fluoro-1-((2S,4S)-4-hydroxypyrrolidine-2-carbonyl)piperidin-4-yl)oxy)-5-(4-((4-(4-(oxetan-3-yl)piperazin-1-yl)phenyl)amino)-1,3,5-triazin-2-yl)benzonitrile], the pIC50 in assay [1] was ≤ 6.00; in assay [2] (setting [4]), 7.31; in assay [3], 7.74.
On the same counts, the results for `N#Cc1cc(-c2ncnc(Nc3ccc(N4CCN(C5COC5)CC4)cc3)n2)ccc1O[C@H]1CCN(C(=O)[C@@H]2C[C@@H](O)CN2)C[C@H]1F` [Example 589, 2-(((3R,4S)-3-fluoro-1-((2S,4R)-4-hydroxypyrrolidine-2-carbonyl)piperidin-4-yl)oxy)-5-(4-((4-(4-(oxetan-3-yl)piperazin-1-yl)phenyl)amino)-1,3,5-triazin-2-yl)benzonitrile] are 6.07, 7.55 and 7.74.
On the same counts, the results for `C[C@H](O)C(=O)N1CC[C@H](COc2cc(C#N)cc(-c3ncnc(Nc4ccc(N5CCN(C6COC6)CC5)cc4)n3)c2)C1` [Example 590, 3-(((S)-1-((S)-2-hydroxypropanoyl)pyrrolidin-3-yl)methoxy)-5-(4-((4-(4-(oxetan-3-yl)piperazin-1-yl)phenyl)amino)-1,3,5-triazin-2-yl)benzonitrile] are ≤ 6.00, ≤ 6.00 and 6.28.
For `N#Cc1cc(OC[C@H]2CCN(C(=O)CO)C2)cc(-c2ncnc(Nc3ccc(N4CCN(C5COC5)CC4)cc3)n2)c1` [Example 591, (S)-3-((1-(2-hydroxyacetyl)pyrrolidin-3-yl)methoxy)-5-(4-((4-(4-(oxetan-3-yl)piperazin-1-yl)phenyl)amino)-1,3,5-triazin-2-yl)benzonitrile], in that order: 6.18, ≤ 6.00 and 6.32.
Regarding `N#Cc1cc(-c2ncnc(Nc3ccc(N4CCN(C5COC5)CC4)cc3)n2)ccc1OCCn1ccnc1` [Example 592, 2-(2-(1H-imidazol-1-yl)ethoxy)-5-(4-((4-(4-(oxetan-3-yl)piperazin-1-yl)phenyl)amino)-1,3,5-triazin-2-yl)benzonitrile], the pIC50 in assay [1] is 6.62; in assay [2] (setting [4]), 7.64; in assay [3], 7.68.
For `Cn1ccc(C(=O)N2CCC(COc3ccc(-c4ncnc(Nc5ccc(N6CCN(C7COC7)CC6)cc5)n4)cc3C#N)CC2)cc1=O` [Example 593, 2-((1-(1-methyl-2-oxo-1,2-dihydropyridine-4-carbonyl)piperidin-4-yl)methoxy)-5-(4-((4-(4-(oxetan-3-yl)piperazin-1-yl)phenyl)amino)-1,3,5-triazin-2-yl)benzonitrile], in that order: ≤ 6.00, 6.18 and 6.34.
On the same counts, the results for `N#Cc1cc(-c2ncnc(Nc3ccc(N4CCN(C5COC5)CC4)cc3)n2)ccc1OCC1CCC(=O)N1` (stereo not drawn) [Example 594, 5-(4-((4-(4-(oxetan-3-yl)piperazin-1-yl)phenyl)amino)-1,3,5-triazin-2-yl)-2-((5-oxopyrrolidin-2-yl)methoxy)benzonitrile] are ≤ 6.00, 6.63 and 6.77.
Take `Cn1ccc(C(=O)N2CCC(Oc3ccc(-c4ncnc(Nc5ccc(N6CCN(C7COC7)CC6)cc5)n4)cc3C#N)CC2)cc1=O` [Example 595, 2-((1-(1-methyl-2-oxo-1,2-dihydropyridine-4-carbonyl)piperidin-4-yl)oxy)-5-(4-((4-(4-(oxetan-3-yl)piperazin-1-yl)phenyl)amino)-1,3,5-triazin-2-yl)benzonitrile]: the pIC50 in assay [1] was ≤ 6.00; in assay [2] (setting [4]), 7.05; in assay [3], 7.16.
In the case of `CN1CCC(COc2ccc(-c3ncnc(Nc4ccc(N5CCN(C6COC6)CC5)cc4)n3)cc2C#N)CC1=O` (stereo not drawn) [Example 596, 2-((1-methyl-2-oxopiperidin-4-yl)methoxy)-5-(4-((4-(4-(oxetan-3-yl)piperazin-1-yl)phenyl)amino)-1,3,5-triazin-2-yl)benzonitrile], the pIC50 in assay [1] was ≤ 6.00; in assay [2] (setting [4]), 6.39; in assay [3], 6.58.
On the same counts, the results for `N#Cc1cc(-c2ncnc(Nc3ccc(N4CCN(C5COC5)CC4)cc3)n2)ccc1OCCC1CNC(=O)C1` (stereo not drawn) [Example 597, 5-(4-((4-(4-(oxetan-3-yl)piperazin-1-yl)phenyl)amino)-1,3,5-triazin-2-yl)-2-(2-(5-oxopyrrolidin-3-yl)ethoxy)benzonitrile] are ≤ 6.00, 6.88 and 7.02.
Take `N#Cc1cc(-c2ncnc(Nc3ccc(N4CCN(C5COC5)CC4)cc3)n2)ccc1OCCNC(=O)c1cccnc1` [Example 598, N-(2-(2-cyano-4-(4-((4-(4-(oxetan-3-yl)piperazin-1-yl)phenyl)amino)-1,3,5-triazin-2-yl)phenoxy)ethyl)nicotinamide]: the pIC50 in assay [1] was 6.28; in assay [2] (setting [4]) it was 6.14; in assay [3], 6.57.
`N#Cc1cc(-c2ncnc(Nc3ccc(N4CCN(C5COC5)CC4)cc3)n2)ccc1OCCc1cnc2ncnn2c1` [Example 599]: the figures for the pIC50 in assay [1], in assay [2] and in assay [3] were 6.29, 6.75 and 7.43, respectively.
For the molecule `COCCN1CC(COc2ccc(-c3ncnc(Nc4ccc(N5CCN(C6COC6)CC5)cc4)n3)cc2C#N)CC1=O` (stereo not drawn) [Example 601, 2-((1-(2-methoxyethyl)-5-oxopyrrolidin-3-yl)methoxy)-5-(4-((4-(4-(oxetan-3-yl)piperazin-1-yl)phenyl)amino)-1,3,5-triazin-2-yl)benzonitrile], the values for the pIC50 in assay [1], in assay [2] and in assay [3] were ≤ 6.00, ≤ 6.00 and 6.00, respectively.
As for `N#Cc1cc(-c2ncnc(Nc3ccc(N4CCN(C5COC5)CC4)cc3)n2)ccc1OCCNC(N)=O` [Example 602, 1-(2-(2-cyano-4-(4-((4-(4-(oxetan-3-yl)piperazin-1-yl)phenyl)amino)-1,3,5-triazin-2-yl)phenoxy)ethyl)urea], the results for the negative logarithm of the IC50 (pIC50) in assay [1], in assay [2] and in assay [3] were ≤ 6.00, 6.21 and 6.90, respectively.
For the molecule `N#Cc1cc(-c2ncnc(Nc3ccc(N4CCN(C5COC5)CC4)cc3)n2)ccc1OCC1CCNC(=O)C1` (stereo not drawn) [Example 604, 5-(4-((4-(4-(oxetan-3-yl)piperazin-1-yl)phenyl)amino)-1,3,5-triazin-2-yl)-2-((2-oxopiperidin-4-yl)methoxy)benzonitrile], the results for the pIC50 in assay [1], in assay [2] and in assay [3] were 6.02, 7.43 and 7.55, respectively.
As for `N#Cc1cc(-c2ncnc(Nc3ccc(N4CCN(C5COC5)CC4)cc3)n2)ccc1OCCN1CCN(C(N)=O)CC1` [Example 606, 4-(2-(2-cyano-4-(4-((4-(4-(oxetan-3-yl)piperazin-1-yl)phenyl)amino)-1,3,5-triazin-2-yl)phenoxy)ethyl)piperazine-1-carboxamide], the pIC50 in assay [1] was ≤ 6.00; in assay [2], 6.31; in assay [3] it was 6.30.
